Test results taken from patent publication US20170224647A1, “NEW MDR1 INHIBITORS FOR OVERCOMING MULTIDRUG RESISTANCE” (UNIVERSITA' DEGLI STUDI DI PARMA, priority 2014, published 2017).

Tests used:
ABCG2 = target: T1, ABCG2 (Homo sapiens, UniProt Q9UNQ0); experiment: ABCG2-mediated outflow of fluorescent Hoechst in H460 cells; assay type: cell-based; details: H460 cells over-expressing ABCG2; FIG. 4
T1 construct: a model of human lung adenocarcinoma (H460) over-expressing such receptor; endogenous in cells; host or cells: H460 (human lung carcinoma)
T1 sequence (Q9UNQ0 1-655): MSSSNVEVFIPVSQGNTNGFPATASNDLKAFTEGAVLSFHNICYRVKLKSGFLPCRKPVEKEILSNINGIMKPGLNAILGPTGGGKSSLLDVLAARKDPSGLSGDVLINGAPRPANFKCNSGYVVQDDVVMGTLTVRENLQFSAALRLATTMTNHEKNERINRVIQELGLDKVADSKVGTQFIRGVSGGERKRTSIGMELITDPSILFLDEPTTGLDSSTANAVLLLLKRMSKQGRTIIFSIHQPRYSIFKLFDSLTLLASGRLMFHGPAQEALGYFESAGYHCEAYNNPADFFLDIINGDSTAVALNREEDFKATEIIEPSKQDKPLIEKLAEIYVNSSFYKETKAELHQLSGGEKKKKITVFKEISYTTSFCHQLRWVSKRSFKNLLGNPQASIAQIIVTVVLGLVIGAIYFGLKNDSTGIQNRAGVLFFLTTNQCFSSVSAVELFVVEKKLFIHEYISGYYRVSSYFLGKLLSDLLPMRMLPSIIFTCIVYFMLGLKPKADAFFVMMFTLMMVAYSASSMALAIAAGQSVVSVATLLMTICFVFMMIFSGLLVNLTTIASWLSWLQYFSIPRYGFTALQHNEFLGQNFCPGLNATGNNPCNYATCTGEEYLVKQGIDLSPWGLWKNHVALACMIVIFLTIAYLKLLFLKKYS
Description: (§1) Once the growth medium has been removed from the cells, a PBS washing at 37° C. is carried out, and RPMI without phenol red containing antibiotics is added, 5% FCS, 10 mM HEPES and 2mM Glutamine in the presence/absence of Calcein AM or 1 μM Hoechst and possible inhibitors are added. At the end of the loading, two washings with cold PBS are carried out, RPMI without Calcein AM or Hoechst is added, and samples are read by using the fluorescence plate reader (Enspire, Perkin Elmer; A of excitation: 360 nm; λ of emission: 465 nm). The value provided by the instrument is proportional to the intracellular concentration of Calcein AM and Hoechst. Finally, the cells are treated with 5% TCA, followed by 0.5 N NaOH to solubilize the cells. The protein content is determined by the Bradford method, and it is used for normalizing the uptake values of Calcein AM and Hoechst. The accumulation of Calcein or Hoechst is therefore expressed as the fluorescence intensity/mg proteins.

ABCG1 = target: T2, ABCG1 (Homo sapiens, UniProt P45844); experiment: ABCG1-mediated cholesterol outflow; assay type: cell-based, hamster; details: CHO-L3 over-expressing ABCG1 vs CHO-K1, HDL acceptor; FIG. 5A
T2 construct: expressed in transfected cells; host or cells: CHO-L3 (derived from hamster ovary CHO-K1, which serves as control)
Description: In order to assess the ABCG1-mediated outflow, control hamster ovary cells CHO-K1 and CHO-L3 over-expressing the ABCG1 protein in Ham's medium F12 with 10% FBS were seeded in parallel in sterile 24-well plates. After 24 h, both cell lines were labeled with 10% FBS medium containing 1 μCi/ml [3H]-cholesterol. At the end of the labelling period (24 h), both cell lines were washed with PBS and equilibrated during 90 minutes with medium supplemented with 0.2% albumin. At the end of the equilibration, the cells were treated in the absence or presence of our compound AIF1 during 2 hours, and incubated for the next 6 hours e with the cholesterol acceptors, HDLs, at a concentration of 12.5 μg/ml. The quantification of the tritiated cholesterol secreted by the cells in the medium was determined as described in the previous paragraph. In particular, the contribution of the ABCG1 transporter to the cholesterol outflow was calculated as the difference between the outflow percentages obtained from the cell line CHO-L3 over-expressing ABCG1 and those obtained from the control cell line CHO-K1. Each experimental condition was carried out in triplicates, and data was expressed as mean±standard deviation.

SKMES cells = experiment: Intracellular doxorubicin by confocal microscope; assay type: cell-based, human
Description: SKMES cells were seeded on cover glasses and incubated with culture medium in a thermostat for 24 h. […]
Images were taken by using a confocal microscope (LSM 510 Meta scan integrated with a reversed microscope Carl Zeiss, Jena Germany), with a 43×/1.30 oil immersion lens.
Fluorescence of doxorubicin was excited with a 488 nm argon laser and its emission was collected by a 530 nm filter. During the analysis of the various samples, the confocal settings (excitation, laser power, detection range, and pinhole size) were kept unaltered.

tumoral cell = experiment: Intracellular concentration of doxorubicin by LC-MS/MS; assay type: cell-based; details: after AIF1 treatment compared to untreated cells; FIG. 8
Description: The intracellular content of Doxorubicin and AIF-1 may be determined by liquid chromatography-tandem mass spectrometry (LC-MS/MS) of samples extracted with absolute ethanol. In particular, after the treatment with the drugs, the culture medium is removed, and 3 washings of the cell monolayer with PBS are carried out. Then, the cells are incubated for ten minutes at room temperature with absolute ethanol, which is then analyzed by a LC-MS/MS technique. Values were normalized for the protein content assessed after solubilization of the cell monolayer with 0.5N NaOH and are expressed as pmoles/mg proteins.
Doxorubicin and AIF-1 concentrations in the samples of cell extracts were determined by liquid chromatography-tandem mass spectrometry (LCMS/MS) by using a mass spectrometer.
The samples extracted in ethanol were filtered on a 0.2 μm cellulose filter and analyzed by liquid chromatography-tandem mass spectrometry (LC-MS/MS). […]
The full scan mass spectra were recorded in the 250-900 m/z range, using a 0.1 stepsize and 1 s scan time in the positive ion mode for doxorubicin and atenolol (ATN, used as the internal standard) and in the negative ion mode for AIF1. […]

ABCA1 = target: T3, ABCA1 (Mus musculus, UniProt P41233); experiment: ABCA1-mediated cholesterol outflow; assay type: cell-based; details: murine peritoneal macrophages, apolipoprotein A-I acceptor; FIG. 5B
T3 construct: the expression of the ABCA1 protein on the plasma membrane was stimulated by adding 22-OH cholesterol and 9-cis-retinoic acid; endogenous in cells; host or cells: murine peritoneal macrophages (primary)
T3 sequence (P41233 whole entry): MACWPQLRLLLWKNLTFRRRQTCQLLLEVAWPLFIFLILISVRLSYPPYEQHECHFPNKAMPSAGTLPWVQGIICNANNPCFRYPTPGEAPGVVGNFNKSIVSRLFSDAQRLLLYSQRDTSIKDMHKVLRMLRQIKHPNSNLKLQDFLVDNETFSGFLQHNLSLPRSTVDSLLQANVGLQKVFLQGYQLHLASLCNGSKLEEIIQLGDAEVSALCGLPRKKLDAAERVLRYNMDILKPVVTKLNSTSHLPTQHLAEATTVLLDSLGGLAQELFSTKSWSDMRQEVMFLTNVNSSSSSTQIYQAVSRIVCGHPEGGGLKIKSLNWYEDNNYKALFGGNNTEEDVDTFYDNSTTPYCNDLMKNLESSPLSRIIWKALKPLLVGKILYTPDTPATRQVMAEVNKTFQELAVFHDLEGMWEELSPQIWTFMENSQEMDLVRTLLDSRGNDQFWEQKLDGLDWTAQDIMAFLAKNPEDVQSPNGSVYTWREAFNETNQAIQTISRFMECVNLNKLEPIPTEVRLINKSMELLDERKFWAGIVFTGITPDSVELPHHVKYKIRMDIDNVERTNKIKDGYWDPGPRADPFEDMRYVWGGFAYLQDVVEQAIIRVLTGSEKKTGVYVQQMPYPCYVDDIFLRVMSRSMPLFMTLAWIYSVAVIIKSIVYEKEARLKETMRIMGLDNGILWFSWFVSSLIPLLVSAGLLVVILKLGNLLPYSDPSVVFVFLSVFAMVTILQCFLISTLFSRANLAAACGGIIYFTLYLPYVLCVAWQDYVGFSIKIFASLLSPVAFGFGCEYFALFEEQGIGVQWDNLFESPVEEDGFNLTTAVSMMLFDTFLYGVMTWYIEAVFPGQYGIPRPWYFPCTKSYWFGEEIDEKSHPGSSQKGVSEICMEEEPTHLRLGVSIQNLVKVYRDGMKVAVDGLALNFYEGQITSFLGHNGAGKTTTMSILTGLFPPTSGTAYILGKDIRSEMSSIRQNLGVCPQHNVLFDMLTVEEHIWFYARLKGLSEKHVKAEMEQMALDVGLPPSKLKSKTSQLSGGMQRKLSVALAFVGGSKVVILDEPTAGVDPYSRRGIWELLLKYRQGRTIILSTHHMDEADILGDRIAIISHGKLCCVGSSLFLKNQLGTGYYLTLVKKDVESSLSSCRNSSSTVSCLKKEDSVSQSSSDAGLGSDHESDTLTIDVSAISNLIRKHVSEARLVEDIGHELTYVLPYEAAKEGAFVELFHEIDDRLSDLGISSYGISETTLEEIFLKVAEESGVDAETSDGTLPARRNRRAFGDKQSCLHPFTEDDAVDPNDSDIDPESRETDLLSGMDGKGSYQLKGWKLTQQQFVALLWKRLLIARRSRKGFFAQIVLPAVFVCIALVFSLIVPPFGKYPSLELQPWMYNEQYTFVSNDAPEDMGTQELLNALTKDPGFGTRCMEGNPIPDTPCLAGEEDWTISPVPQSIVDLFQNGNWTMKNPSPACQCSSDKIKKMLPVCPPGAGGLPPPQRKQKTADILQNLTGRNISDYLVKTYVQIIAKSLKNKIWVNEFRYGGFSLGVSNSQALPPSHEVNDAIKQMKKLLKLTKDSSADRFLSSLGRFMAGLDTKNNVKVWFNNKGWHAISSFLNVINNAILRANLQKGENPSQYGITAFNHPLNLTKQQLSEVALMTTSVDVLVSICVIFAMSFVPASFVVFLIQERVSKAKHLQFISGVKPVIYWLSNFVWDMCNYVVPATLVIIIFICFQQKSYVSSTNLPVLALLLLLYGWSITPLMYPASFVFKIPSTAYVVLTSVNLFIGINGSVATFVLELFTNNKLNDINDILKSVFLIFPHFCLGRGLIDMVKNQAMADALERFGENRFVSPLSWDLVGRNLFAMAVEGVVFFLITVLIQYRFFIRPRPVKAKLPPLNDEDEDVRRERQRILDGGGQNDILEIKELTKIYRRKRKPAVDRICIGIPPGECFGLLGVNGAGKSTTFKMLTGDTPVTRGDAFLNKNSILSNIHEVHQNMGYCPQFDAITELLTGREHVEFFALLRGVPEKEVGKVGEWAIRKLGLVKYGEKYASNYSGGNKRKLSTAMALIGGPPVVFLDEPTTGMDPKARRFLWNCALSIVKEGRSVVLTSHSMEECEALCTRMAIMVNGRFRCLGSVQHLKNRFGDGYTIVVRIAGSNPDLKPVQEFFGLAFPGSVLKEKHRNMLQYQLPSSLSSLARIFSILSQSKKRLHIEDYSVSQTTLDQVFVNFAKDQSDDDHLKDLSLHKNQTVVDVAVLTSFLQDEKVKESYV
Description: Murine peritoneal macrophages were seeded in da 24-well plates, each containing 10^6 cell/well in 10% RPMI of fetal bovine serum (FBS). After 24 h, following a PBS washing, the cells were incubated with radiolabeled medium containing [3H]-cholesterol at a concentration of 2 μCi/ml in a medium supplemented with FBS 2% in the presence of the inhibitor of the esterifying enzyme ACAT (SAH58035) at a final concentration of 2 μg/ml in order to maintain all the intracellular cholesterol in the free form and the ABCA1 substrate in the outflow process. At the completion of the 24-hour staining, after the PBS washing, the cells were incubated with an equilibration medium composed of RPMI, 0.2% albumin, and the ACAT inhibitor. […] The filtered medium was collected and transferred into a vial, together with the scintillation liquid for the subsequent reading at the β-counter for the measurement of the radioactivity present in the cultural medium, which is an index of the free cholesterol excreted by the cells. The outflow percentage is calculated on the total radioactivity which is present in the cell by the following formula: % outflow=(average cpm/total cpm of the monolayer)×100. Each experimental condition was carried out in triplicates, and data was expressed as mean±standard deviation.

MDR1 [1] = target: T4, MDR1 (Homo sapiens, UniProt P08183); experiment: MDR1-mediated accumulation of fluorescent calcein in A549 cells; assay type: cell-based; details: A549 human lung adenocarcinoma cells; FIG. 3A
T4 construct: lung squamous-cell carcinoma (SKMES) expressing high levels of MDR1 on the plasma membrane; endogenous in cells; host or cells: SKMES (lung squamous-cell carcinoma)
T4 sequence (P08183 whole entry): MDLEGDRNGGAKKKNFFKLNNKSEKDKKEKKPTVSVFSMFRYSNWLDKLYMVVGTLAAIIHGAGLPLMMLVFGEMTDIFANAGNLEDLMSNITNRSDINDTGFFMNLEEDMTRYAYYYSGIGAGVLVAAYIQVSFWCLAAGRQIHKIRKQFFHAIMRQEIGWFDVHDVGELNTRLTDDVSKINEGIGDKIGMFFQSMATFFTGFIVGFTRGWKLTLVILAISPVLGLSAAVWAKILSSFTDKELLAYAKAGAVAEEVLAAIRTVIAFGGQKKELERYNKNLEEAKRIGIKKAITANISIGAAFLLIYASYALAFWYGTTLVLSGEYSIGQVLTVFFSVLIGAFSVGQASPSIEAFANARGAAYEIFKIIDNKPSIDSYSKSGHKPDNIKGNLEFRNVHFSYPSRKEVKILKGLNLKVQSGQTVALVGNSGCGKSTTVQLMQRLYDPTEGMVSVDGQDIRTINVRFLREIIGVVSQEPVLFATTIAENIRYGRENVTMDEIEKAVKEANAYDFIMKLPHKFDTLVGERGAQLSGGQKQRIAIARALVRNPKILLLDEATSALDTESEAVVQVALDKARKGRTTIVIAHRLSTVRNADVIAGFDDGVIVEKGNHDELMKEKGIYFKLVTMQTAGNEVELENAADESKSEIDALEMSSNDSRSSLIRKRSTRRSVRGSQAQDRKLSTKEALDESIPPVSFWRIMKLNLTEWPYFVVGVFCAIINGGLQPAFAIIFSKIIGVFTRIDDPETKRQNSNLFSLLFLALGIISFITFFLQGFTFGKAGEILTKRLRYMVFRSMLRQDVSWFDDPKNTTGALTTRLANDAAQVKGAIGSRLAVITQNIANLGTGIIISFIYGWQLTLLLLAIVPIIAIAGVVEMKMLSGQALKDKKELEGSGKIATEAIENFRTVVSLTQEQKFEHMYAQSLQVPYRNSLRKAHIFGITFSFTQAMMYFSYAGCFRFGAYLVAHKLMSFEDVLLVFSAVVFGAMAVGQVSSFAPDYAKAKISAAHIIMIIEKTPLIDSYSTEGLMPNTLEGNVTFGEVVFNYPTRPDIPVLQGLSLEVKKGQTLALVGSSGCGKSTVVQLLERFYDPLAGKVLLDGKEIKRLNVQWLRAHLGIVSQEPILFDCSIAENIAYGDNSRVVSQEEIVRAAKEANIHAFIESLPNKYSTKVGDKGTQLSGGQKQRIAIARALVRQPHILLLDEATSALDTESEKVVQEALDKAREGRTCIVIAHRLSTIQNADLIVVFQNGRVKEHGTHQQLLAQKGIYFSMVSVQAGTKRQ
Description: (§2) The lung carcinoma cell lines A549 and SKMES are grown in RPMI, supplemented with 10% fetal calf serum (FCS), 2 mM glutamine (Gln), and antibiotics (Penicillin 100 UI/ml and Streptomycin 100 μg/ml). Cells are kept in a thermostat at a temperature of 37° C., in air saturated with water vapor, enriched with 5% CO2.
as §1

MDR1 [2] = target: T4, MDR1; experiment: MDR1-mediated accumulation of fluorescent calcein in SKMES cells; assay type: cell-based; details: SKMES lung squamous-cell carcinoma cells; compared with PSC833; FIG. 3B
Description: as §2, §1

- accumulation/extrusion of fluorescent Hoechst (ABCG2 substrate) (ABCG2): did not show any effect
- outflow of cholesterol mediated by ABCG1 (ABCG1): does not show any effect
- outflow of cholesterol mediated by ABCA1 (ABCA1): does not show any effect
- effect on MDR1-mediated accumulation of fluorescent calcein (MDR1 [2]): highly effective
SMILES: CC(C)(Sc1cc(C(C)(C)C)c(OC(=O)CCC(=O)O)c(C(C)(C)C)c1)Sc1cc(C(C)(C)C)c(OC(=O)CCC(=O)O)c(C(C)(C)C)c1 [AIF1]
- intracellular fluorescent signal of doxorubicin (SKMES cells; after 60 and 90 minutes of doxorubicin in the presence of AIF1, FIGS. 7B, 7C): remains almost unaltered
- intracellular fluorescent signal of doxorubicin (SKMES cells; after 30 minutes doxorubicin, vs cells not treated with the compound, FIG. 7A): considerably increased
- concentration of intracellular doxorubicin (tumoral cell): significantly higher
- intracellular concentration of calcein (MDR1-mediated cell outflow of fluorescent calcein) (MDR1 [1]): significantly and dose-dependent increases
